Values after ≈ are worked out from the molar mass of the structure shown. Values joined by “and” are separate entries in the source; they are usually repeats but may differ in a detail not shown here. Equal entries are not always repeated.
Assays:
Cryptosporidium parvum = test: Antiparasitic activity against Cryptosporidium parvum infected in human […] cells after 46 hrs by immunofluorescence method; assay type: functional, organism-based
HCT-8 [1] = test: Cytotoxicity against human HCT8 cells at 1.96 to 22.7 uM; assay type: cell-based; details: hct-8, 22.7 µM
HCT-8 [2] = test: Cytotoxicity against human HCT8 cells assessed as effect on cell viability at 25.69 to 37.22 uM; assay type: cell-based; details: hct-8, 37.22 µM
[3] = Cryptosporidium parvum, HCT-8, 46 h, read-out: IC50

SMILES: CC(=O)Oc1c(C)cccc1C(=O)Nc1ncc([N+](=O)[O-])s1
- IC50 (Cryptosporidium parvum; [3]): 0.5 µg/mL (≈ 1.56 µM)
- IC50 (Cryptosporidium parvum; htc8): 1 µg/mL (≈ 3.11 µM)
- Activity (HCT-8 [1]): Non-toxic
- Activity (HCT-8 [2]): Toxic

SMILES: COc1ccccc1C(=O)Nc1ncc([N+](=O)[O-])s1
- IC50 (Cryptosporidium parvum; [3]): 5.5 µg/mL (≈ 19.7 µM)
- IC50 (Cryptosporidium parvum; htc8): Not Active
- Activity (HCT-8 [1]): Non-toxic

SMILES: CC(=O)Oc1ccc(C)cc1C(=O)Nc1ncc(Cl)s1
- Activity (HCT-8 [1]): Non-toxic
- Activity (HCT-8 [2]): Toxic

SMILES: Cc1ccc(C(=O)Nc2ncc(Br)s2)c(O)c1
- IC50 (Cryptosporidium parvum; [3]): 5.2 µg/mL (≈ 16.6 µM)
- IC50 (Cryptosporidium parvum; htc8): 9.3 µg/mL (≈ 29.7 µM)
- Activity (HCT-8 [1]): Non-toxic

SMILES: CC(=O)Oc1ccc(C)cc1C(=O)Nc1ncc(Br)s1
- IC50 (Cryptosporidium parvum; htc8): 1.7 µg/mL and 4.4 µg/mL
- Activity (HCT-8 [1]): Non-toxic
- Activity (HCT-8 [2]): Toxic

SMILES: CC(=O)Oc1ccccc1C(=O)Nc1ncc(Br)s1
- Activity (HCT-8 [1]): Non-toxic

SMILES: CC(=O)Oc1cc(C)ccc1C(=O)Nc1ncc(Br)s1
- Activity (HCT-8 [1]): Non-toxic

SMILES: O=C(Nc1ncc(Cl)s1)c1ccccc1O
- IC50 (Cryptosporidium parvum; htc8): 2.6 µg/mL and 6 µg/mL
- Activity (HCT-8 [1]): Non-toxic
- Activity (HCT-8 [2]): Toxic

SMILES: Cc1nc(NC(=O)c2ccccc2O)sc1Br
- Activity (HCT-8 [1]): Non-toxic
- Activity (HCT-8 [2]): Toxic

SMILES: Cc1cccc(C(=O)Nc2nc(C)c(Br)s2)c1O
- Activity (HCT-8 [1]): Non-toxic
- Activity (HCT-8 [2]): Toxic

SMILES: Cc1ccc(O)c(C(=O)Nc2ncc(Cl)s2)c1
- Activity (HCT-8 [1]): Non-toxic

SMILES: O=C(Nc1ncc(Br)s1)c1ccccc1O
- Activity (HCT-8 [1]): Non-toxic

SMILES: Cc1cccc(C(=O)Nc2nc(-c3ccccc3)c(Br)s2)c1O
- Activity (HCT-8 [1]): Non-toxic
- Activity (HCT-8 [2]): Toxic

SMILES: CCCc1cnc(NC(=O)c2ccccc2O)s1
- IC50 (Cryptosporidium parvum; [3]): 6.7 µg/mL (≈ 25.5 µM)
- IC50 (Cryptosporidium parvum; htc8): Not Active
- Activity (HCT-8 [1]): Non-toxic

SMILES: CS(=O)(=O)c1cnc(NC(=O)c2ccccc2O)s1
- IC50 (Cryptosporidium parvum; [3]): 6.9 µg/mL (≈ 23.1 µM)
- IC50 (Cryptosporidium parvum; htc8): Not Active
- Activity (HCT-8 [1]): Non-toxic

SMILES: O=C(Nc1nccs1)c1ccccc1O
- IC50 (Cryptosporidium parvum; [3]): > 10 µg/mL
- IC50 (Cryptosporidium parvum; htc8): Not Active
- Activity (HCT-8 [1]): Non-toxic

SMILES: CC(=O)Oc1ccccc1C(=O)Nc1nc(C)c(Br)s1
- IC50 (Cryptosporidium parvum; htc8): 2.1 µg/mL and 4.8 µg/mL
- Activity (HCT-8 [1]): Non-toxic

SMILES: Cc1cccc(C(=O)Nc2ncc(Cl)s2)c1O
- IC50 (Cryptosporidium parvum; [3]): 2.3 µg/mL (≈ 8.56 µM)
- IC50 (Cryptosporidium parvum; htc8): 4.6 µg/mL (≈ 17.1 µM)
- Activity (HCT-8 [1]): Non-toxic
- Activity (HCT-8 [2]): Toxic

SMILES: CSc1nnc(NC(=O)c2ccccc2OC(C)=O)s1
- IC50 (Cryptosporidium parvum; [3]): 6.4 µg/mL (≈ 20.7 µM)
- IC50 (Cryptosporidium parvum; htc8): 9.2 µg/mL (≈ 29.7 µM)
- Activity (HCT-8 [1]): Non-toxic
- Activity (HCT-8 [2]): Toxic

SMILES: Cc1cnc(NC(=O)c2ccccc2O)s1
- IC50 (Cryptosporidium parvum; [3]): > 10 µg/mL
- IC50 (Cryptosporidium parvum; htc8): Not Active
- Activity (HCT-8 [1]): Non-toxic

SMILES: COc1cccc(C(=O)Nc2ncc([N+](=O)[O-])s2)c1O
- IC50 (Cryptosporidium parvum; htc8): 0.4 µg/mL and 1 µg/mL
- Activity (HCT-8 [1]): Non-toxic
- Activity (HCT-8 [2]): Toxic

SMILES: Cc1cccc(C(=O)Nc2ncc(Br)s2)c1O
- Activity (HCT-8 [1]): Non-toxic
- Activity (HCT-8 [2]): Toxic

SMILES: O=C(Nc1ncc(F)s1)c1ccccc1O
- Activity (HCT-8 [1]): Non-toxic
- Activity (HCT-8 [2]): Toxic

SMILES: CC(=O)Oc1ccccc1C(=O)Nc1nncs1
- IC50 (Cryptosporidium parvum; [3]): 5 µg/mL (≈ 19 µM)
- IC50 (Cryptosporidium parvum; htc8): Not Active
- Activity (HCT-8 [1]): Non-toxic

SMILES: CC(=O)Oc1ccccc1C(=O)Nc1ncc([N+](=O)[O-])s1 [NITAZOXANIDE]
- Activity (HCT-8 [1]): Non-toxic

SMILES: CC(=O)Oc1c(C)cccc1C(=O)Nc1ncc(Br)s1
- Activity (HCT-8 [1]): Non-toxic
- Activity (HCT-8 [2]): Toxic

SMILES: O=C(Nc1ncc(C2CCCCC2)s1)c1ccccc1O
- IC50 (Cryptosporidium parvum; [3]): > 10 µg/mL
- IC50 (Cryptosporidium parvum; htc8): Not Active
- Activity (HCT-8 [1]): Non-toxic

SMILES: COc1cccc(C(=O)Nc2ncc(Br)s2)c1OC(C)=O
- IC50 (Cryptosporidium parvum; [3]): 4.6 µg/mL (≈ 12.4 µM)
- IC50 (Cryptosporidium parvum; htc8): Not Active
- Activity (HCT-8 [1]): Non-toxic

SMILES: Cc1nc(NC(=O)c2ccccc2O)sc1[N+](=O)[O-]
- IC50 (Cryptosporidium parvum; [3]): 0.6 µg/mL (≈ 2.15 µM)
- IC50 (Cryptosporidium parvum; htc8): 1 µg/mL (≈ 3.58 µM)
- Activity (HCT-8 [1]): Non-toxic
- Activity (HCT-8 [2]): Toxic

SMILES: CCOC(=O)Cc1nnc(NC(=O)c2ccccc2OC(C)=O)s1
- IC50 (Cryptosporidium parvum; [3]): > 10 µg/mL
- IC50 (Cryptosporidium parvum; htc8): Not Active
- Activity (HCT-8 [1]): Non-toxic

SMILES: O=C(Nc1nc(-c2ccccc2)c(Br)s1)c1ccccc1O
- IC50 (Cryptosporidium parvum; htc8): 0.4 µg/mL and 1 µg/mL
- Activity (HCT-8 [1]): Non-toxic
- Activity (HCT-8 [2]): Toxic

SMILES: O=C(Nc1ncc(-c2ccccc2Cl)s1)c1ccccc1O
- IC50 (Cryptosporidium parvum; [3]): 6.1 µg/mL (≈ 18.4 µM)
- IC50 (Cryptosporidium parvum; htc8): Not Active
- Activity (HCT-8 [1]): Non-toxic
- Activity (HCT-8 [2]): Toxic

SMILES: Cc1ccc(C(=O)Nc2ncc(Cl)s2)c(O)c1
- Activity (HCT-8 [1]): Non-toxic
- Activity (HCT-8 [2]): Toxic

SMILES: CC(=O)Oc1ccccc1C(=O)Nc1ncc(S(C)(=O)=O)s1
- IC50 (Cryptosporidium parvum; [3]): 5 µg/mL (≈ 14.7 µM)
- IC50 (Cryptosporidium parvum; htc8): Not Active
- Activity (HCT-8 [1]): Non-toxic

SMILES: CC(=O)Oc1ccccc1C(=O)Nc1nnc(C(F)(F)F)s1
- Activity (HCT-8 [1]): Non-toxic

SMILES: CCOC(=O)Cc1csc(NC(=O)c2ccccc2OC(C)=O)n1
- IC50 (Cryptosporidium parvum; [3]): 8.4 µg/mL (≈ 24.1 µM)
- IC50 (Cryptosporidium parvum; htc8): Not Active
- Activity (HCT-8 [1]): Non-toxic

Reference: ChEMBL document CHEMBL1240395 (Antimicrob Agents Chemother, 2010)
